Data from patent publication US10947215B2, “Heteroaryl compounds and their use as therapeutic drugs” (Dong-A Socio Holdings Co., Ltd., priority 2015, dated 2021).

Test system: Ba/F3-CDM cells (Ba/F3 transfected with CD8-MerTK)
Assay: In cell MER kinase assay, Ba/F3-CDM cell proliferation without IL-3 (Celltiter-Glo, GI50)
Type: cell-based, murine
Conditions: 48 hours, read-out: Cell growth inhibition (GI50)
Procedure: In Cell MER Kinase Assay Using BaF3 Cellular System
To establish an in cell kinase assay for MerTK kinase, the IL-3 dependent Ba/F3 cells of murine lymphoid origin was transfected with CD8-MerTK. […] For a routine cellular assay, Ba/F3-CDM cells were seeded at 2,000 cells per well in 384-well cell culture plate containing DMEM/10% FBS culture media and incubated for 24 hours before addition of compounds pre-diluted in culture media. Following compound treatment, cells were further incubated for 48 hours and the proliferation was measured. To discriminate a Ba/F3 growth inhibition by a specific inhibition of MerTK kinase following compound treatment vs growth inhibition due to a non-specific unintended cytotoxicity of compounds, we routinely carried out control sets of Ba/F3 cells in parallel that grown in IL3-supplemented growth media. In the presence of IL-3, the proliferation of Ba/F3 is no longer dependent on the MerTK activity. Cell growth and proliferation was measured with Celltiter-Glo™ system (Promega, USA) according to the manufacturer's instruction. The half-maximal growth inhibitory concentration (GI50) value was calculated with Prism6.0 software (GraphPad, USA).

SMILES: CC(c1ccc(-c2ccc(CO[C@H]3CCC[C@@H]3NC(=O)c3cc(-c4cnn(C)c4)cnc3N)cc2)cc1)N1CCN(C)CC1 (stereo partly drawn) [Example 208, 2-amino-5-(1-methyl-1H-pyrazol-4-yl)-N-((1S,2S)-2-((4′-(1-(4-methylpiperazin-1-yl)ethyl)-[1,1′-biphenyl]-4-yl)methoxy)cyclopentyl)nicotinamide]
- GI50: < 100 nM

SMILES: CC(c1ccc(-c2ccc(CO[C@H]3CCC[C@@H]3NC(=O)c3cc(-c4cnn(C)c4)cnc3N)cc2)cc1)N1C[C@@H](C)N(C)[C@@H](C)C1 (stereo partly drawn) [Example 209, 2-amino-5-(1-methyl-1H-pyrazol-4-yl)-N-((1S,2S)-2-((4′-(1-((3S,5R)-3,4,5-trimethylpiperazin-1-yl)ethyl)-[1,1′-biphenyl]-4-yl)methoxy)-cyclopentyl)nicotinamide]
- GI50: < 100 nM

SMILES: CC(c1ccc(-c2ccc(CO[C@H]3CCC[C@@H]3NC(=O)c3cc(-c4cnn(C)c4)cnc3N)cc2)cc1)N1C[C@@H](C)N(CCO)[C@@H](C)C1 (stereo partly drawn) [Example 211, 2-amino-N-((1S,2S)-2-((4′-(1-((3S,5R)-4-(2-hydroxyethyl)-3,5-dimethylpiperazin-1-yl)ethyl)-[1,1′-biphenyl]-4-yl)methoxy)cyclopentyl)-5-(1-methyl-1H-pyrazol-4-yl)nicotinamide]
- GI50: < 100 nM

SMILES: CC(c1c(F)cc(-c2ccc(CO[C@H]3CCC[C@@H]3NC(=O)c3cc(-c4cnn(C)c4)cnc3N)cc2)cc1F)N1CCN(CCO)CC1 (stereo partly drawn) [Example 212, 2-amino-N-((1S,2S)-2-((3′,5′-difluoro-4′-(1-(4-(2-hydroxyethyl)-piperazin-1-yl)ethyl)-[1,1′-biphenyl]-4-yl)methoxy)cyclopentyl)-5-(1-methyl-1H-pyrazol-4-yl)nicotinamide]
- GI50: > 1000 nM

SMILES: C[C@H](c1ccc(-c2ccc(CO[C@H]3CCC[C@@H]3NC(=O)c3cc(-c4cnn(C)c4)cnc3N)cc2)cc1)N1CCN(C)CC1 [Example 214, 2-amino-5-(1-methyl-1H-pyrazol-4-yl)-N-((1S,2S)-2-((4′-((R)-1-(4-methylpiperazin-1-yl)ethyl)-[1,1′-biphenyl]-4-yl)methoxy)cyclopentyl)nicotinamide]
- GI50: < 100 nM

SMILES: C[C@@H](c1ccc(-c2ccc(CO[C@H]3CCC[C@@H]3NC(=O)c3cc(-c4cnn(C)c4)cnc3N)cc2)cc1)N1CCN(C)CC1 [Example 215]
- GI50: < 100 nM

SMILES: Cn1cc(-c2cnc(N)c(C(=O)N[C@H]3CCC[C@@H]3OCc3ccc(-c4ccc(C5(N6CCN(CCO)CC6)CC5)cc4)cc3)c2)cn1 [Example 220, 2-amino-N-((1S,2S)-2-((4′-(1-(4-(2-hydroxyethyl)piperazin-1-yl)cyclopropyl)-[1,1′-biphenyl]-4-yl)methoxy)cyclopentyl)-5-(1-methyl-1H-pyrazol-4-yl)nicotinamide]
- GI50: < 100 nM

SMILES: C[C@@H](c1ccc(-c2ccc(CO[C@H]3CCC[C@@H]3NC(=O)c3cc(-c4ccc(F)nc4)cnc3N)cc2)cc1)N1CCN(C)CC1 [Example 222, 6-amino-6′-fluoro-N-((1S,2S)-2-((4′-((S)-1-(4-methylpiperazin-1-yl)ethyl)-[1,1′-biphenyl]-4-yl)methoxy)cyclopentyl)-[3,3′-bipyridine]-5-carboxamide]
- GI50: < 100 nM

SMILES: C[C@@H](c1ccc(-c2ccc(CO[C@H]3CCC[C@@H]3NC(=O)c3cc(-c4ccc(F)nc4)cnc3N)cc2)cc1)N1CCN(CCO)CC1 [Example 226, 6-amino-6′-fluoro-N-((1S,2S)-2-((4′-((S)-1-(4-(2-hydroxyethyl)piperazin-1-yl)ethyl)-[1,1′-biphenyl]-4-yl)methoxy)cyclopentyl)-[3,3′-bipyridine]-5-carboxamide]
- GI50: < 100 nM

SMILES: C[C@H](c1ccc(-c2ccc(CO[C@H]3CCC[C@@H]3NC(=O)c3cc(-c4ccc(F)nc4)cnc3N)cc2)cc1)N1CCN(CCO)CC1 [Example 227, 6-amino-6′-fluoro-N-((1S,2S)-2-((4′-((R)-1-(4-(2-hydroxyethyl)-piperazin-1-yl)ethyl)-[1,1′-biphenyl]-4-yl)methoxy)cyclopentyl)-[3,3′-bipyridine]-5-carboxamide]
- GI50: < 100 nM

SMILES: CC(c1ccc(-c2ccc(CO[C@H]3CCC[C@@H]3NC(=O)c3cc(-c4cncc(F)c4)cnc3N)cc2)cc1)N1CCN(C)CC1 (stereo partly drawn) [Example 230, 6-amino-5′-fluoro-N-((1S,2S)-2-((4′-(1-(4-methylpiperazin-1-yl)ethyl)-[1,1′-biphenyl]-4-yl)methoxy)cyclopentyl)-[3,3′-bipyridine]-5-carboxamide]
- GI50: < 100 nM

SMILES: CC(c1ccc(-c2ccc(CO[C@H]3CCC[C@@H]3NC(=O)c3cc(-c4cncc(F)c4)cnc3N)cc2)cc1)N1CCN(CCO)CC1 (stereo partly drawn) [Example 236, 6-amino-5′-fluoro-N-((1S,2S)-2-((4′-(1-(4-(2-hydroxyethyl)-piperazin-1-yl)ethyl)-[1,1′-biphenyl]-4-yl)methoxy)cyclopentyl)-[3,3′-bipyridine]-5-carboxamide]
- GI50: < 100 nM

SMILES: CC(c1ccc(-c2ccc(CO[C@H]3CCC[C@@H]3NC(=O)c3cc(-c4ccc(F)nc4)cnc3N)cc2)cc1)N1CCN(CCO)CC1 (stereo partly drawn) [Example 237, 6-amino-6′-fluoro-N-((1S,2S)-2-((4′-(1-(4-(2-hydroxyethyl)-piperazin-1-yl)ethyl)-[1,1′-biphenyl]-4-yl)methoxy)cyclopentyl)-[3,3′-bipyridine]-5-carboxamide]
- GI50: < 100 nM

SMILES: CC(c1ccc(-c2ccc(CO[C@H]3CCC[C@@H]3NC(=O)c3cc(-c4cccnc4F)cnc3N)cc2)cc1)N1CCN(CCO)CC1 (stereo partly drawn) [Example 238, 6-amino-2′-fluoro-N-((1S,2S)-2-((4′-(1-(4-(2-hydroxyethyl)-piperazin-1-yl)ethyl)-[1,1′-biphenyl]-4-yl)methoxy)cyclopentyl)-[3,3′-bipyridine]-5-carboxamide]
- GI50: < 100 nM

SMILES: CN1CCC(Cc2ccc(-c3ccc(CO[C@H]4CCC[C@@H]4NC(=O)c4cc(-c5cnn(C)c5)cnc4N)cc3)cc2)CC1 [Example 239, 2-amino-5-(1-methyl-1H-pyrazol-4-yl)-N-((1S,2S)-2-((4′-((1-methylpiperidin-4-yl)methyl)-[1,1′-biphenyl]-4-yl)methoxy)cyclopentyl)nicotinamide]
- GI50: < 100 nM

SMILES: Cn1cc(-c2cnc(N)c(C(=O)N[C@H]3CCC[C@@H]3OCc3ccc(-c4ccc(CC5CCN(CCO)CC5)cc4)cc3)c2)cn1 [Example 240, 2-amino-N-((1S,2S)-2-((4′-((1-(2-hydroxyethyl)piperidin-4-yl)-methyl)-[1,1′-biphenyl]-4-yl)methoxy)cyclopentyl)-5-(1-methyl-1H-pyrazol-4-yl)-nicotinamide]
- GI50: < 100 nM

SMILES: Cn1cc(-c2cnc(N)c(C(=O)N[C@H]3CCC[C@@H]3OCc3ccc(-c4ccc(CC5CCN(CC(N)=O)CC5)cc4)cc3)c2)cn1 [Example 242, 2-amino-N-((1S,2S)-2-((4′-((1-(2-amino-2-oxoethyl)piperidin-4-yl)methyl)-[1,1′-biphenyl]-4-yl)methoxy)cyclopentyl)-5-(1-methyl-1H-pyrazol-4-yl)-nicotinamide]
- GI50: < 100 nM

SMILES: CN(C)CCOc1ccc(-c2ccc(CO[C@H]3CCC[C@@H]3NC(=O)c3cc(-c4cnn(C)c4)cnc3N)cc2)cc1 [Example 245, 2-amino-N-((1S,2S)-2-((4′-(2-(dimethylamino)ethoxy)-[1,1′-biphenyl]-4-yl)methoxy)cyclopentyl)-5-(1-methyl-1H-pyrazol-4-yl)nicotinamide]
- GI50: 500 to 1000 nM

SMILES: Cn1cc(-c2cnc(N)c(C(=O)N[C@H]3CCC[C@@H]3OCc3ccc(C#CCCO)cc3)c2)cn1 [Example 249, 2-amino-N-((1S,2S)-2-((4-(4-hydroxybut-1-yn-1-yl)benzyl)oxy)-cyclopentyl)-5-(1-methyl-1H-pyrazol-4-yl)nicotinamide]
- GI50: > 1000 nM

SMILES: Cn1cc(-c2cnc(N)c(C(=O)N[C@H]3CCC[C@@H]3OCc3ccc(C#CCCCCO)cc3)c2)cn1 [Example 251, 2-amino-N-((1S,2S)-2-((4-(6-hydroxyhex-1-yn-1-yl)benzyl)oxy)-cyclopentyl)-5-(1-methyl-1H-pyrazol-4-yl)nicotinamide]
- GI50: > 1000 nM

SMILES: Cc1ccc(CO[C@H]2CCC[C@@H]2NC(=O)c2cc(-c3ccc(CN4CCC(N5CCCC5)CC4)c(F)c3)cnc2N)cc1C [Example 325, 2-amino-N-((1S,2S)-2-((3,4-dimethylbenzyl)oxy)cyclopentyl)-5-(3-fluoro-4-((4-(pyrrolidin-1-yl)piperidin-1-yl)methyl)phenyl)nicotinamide]
- GI50: > 1000 nM

SMILES: CCc1cc(CO[C@H]2CCC[C@@H]2NC(=O)c2cc(-c3ccc(C(C)(C)N4CCN(CCO)CC4)cc3)cnc2N)ccc1C [Example 360, 2-amino-N-((1S,2S)-2-((3-ethyl-4-methylbenzyl)oxy)cyclopentyl)-5-(4-(2-(4-(2-hydroxyethyl)piperazin-1-yl)propan-2-yl)phenyl)nicotinamide]
- GI50: > 1000 nM

SMILES: CN1CCN(Cc2ccc(-c3ccc(CO[C@H]4CCC[C@@H]4NC(=O)c4cc(-c5ccc(F)c(F)c5)cnc4N)cc3)cc2)CC1 [Example 364]
- GI50: < 100 nM

SMILES: CN1CCC(n2cc(-c3cnc(N)c(C(=O)N[C@H]4CCC[C@@H]4OCc4ccc(-c5ccc(CN6CCN(C)CC6)cc5)cc4)c3)cn2)CC1 [Example 366, 2-amino-N-((1S,2S)-2-((4′-((4-methylpiperazin-1-yl)methyl)-[1,1′-biphenyl]-4-yl)methox)cyclopentyl)-5-(1-(1-methylpiperidin-4-yl)-1H-pyrazol-4-yl)nicotinamide]
- GI50: < 100 nM

SMILES: CN1CCN(Cc2ccc(-c3ccc(CO[C@H]4CCC[C@@H]4NC(=O)c4cc(-c5ccc(N6CCN(C)CC6)cc5)cnc4N)cc3)cc2)CC1 [Example 367, 2-amino-N-((1S,2S)-2-((4′-((4-methylpiperazin-1-yl)methyl)-[1,1′-biphenyl]-4-yl)methoxy)cyclopentyl)-5-(4-(4-methylpiperazin-1-yl)phenyl)-nicotinamide]
- GI50: < 100 nM
